In patent US7078424B2, “N-linked sulfonamides of N-heterocyclic carboxylic acids or carboxylic acid isosteres” (GPI NIL Holdings, Inc., priority 1998, dated 2006):

Test system: dopaminergic neurons
Test: MPTP model of Parkinson's Disease in mice (MPTP Neurodegenerative Model)
Format: in vivo
Conditions: recovery of TH-stained dopaminergic neurons in striatum; male CD1 mice, MPTP 30 mg/kg i.p. 5 days; test compound 4 mg/kg s.c. concurrent with MPTP plus 5 further days; sacrificed at 18 days
Experimental: MPTP lesioning of dopaminergic neurons in mice is used as an animal model of Parkinson's Disease. Four week old male CD1 white mice are dosed i.p. with 30 mg/kg of MPTP for 5 days. Test compounds (4 mg/kg), or vehicle, are administered s.c. along with the MPTP for 5 days, as well as for an additional 5 days following cessation of MPTP treatment. At 18 days following MPTP treatment, the animals are sacrificed and the striata dissected and perfusion-fixed. Immunostaining is performed on saggital and coronal brain sections using anti-tyrosine hydroxylase […] to quantitate survival and recovery of dopaminergic neurons. In animals treated with MPTP and vehicle, a substantial loss of functional dopaminergic terminals is observed as compared to non-lesioned animals. Lesioned animals receiving test compounds show a significant recovery of TH-stained dopaminergic neurons. This model presents quantitation for the recovery of TH-positive dopaminergic neurons in the striatum of animals receiving the compounds of the present invention. […]
Percent striatal innervation density was quantitated is in brain sections with an anti-tyrosine hydroxylase immunoglobulin, which is indicative of functional dopaminergic neurons. […]

## O=C(O)[C@@H]1CCCN1S(=O)(=O)Cc1ccccc1 [Compound A, (2S)-N-(benzylsulfonyl)-2-pyrrolidinecarboxylic Acid]
  % Recovery: 24.4%
